IC50 data for 36 compounds are collected here from patent US10023593B2, “ALK kinase inhibitor, and preparation method and uses thereof” (BEIJING PEARL BIOTECHNOLOGY LIMITED LIABILITY COMPANY, priority 2014, dated 2018).

pIC50: −log10 of the molar value.

For one assay, the target named is T1, L1196M mutant ALK kinase (Homo sapiens, UniProt Q9UM73, L1196M).
T1 construct: purchased Sino-US Crown Bioscience, Inc. batch number ALKm_20110923
As to the kind of experiment: HTRF KinEASE-TK assay, inhibitory activity on L1196M mutant ALK kinase. It is filed as biochemical. The settings on record: L1196M mutant ALK 1 ng/μl, substrate 1 μM, ATP 5 μM, 30° C. 35 minutes, read-out: Inhibition on ALK kinases (L1196M mutant), IC50. The source says: 2. Inhibitory Activities of the Compounds of the Present Invention on L1196M Mutant ALK Kinases
? experimental method ? HTRF KinEASE™-TK Assay kit from Cisbio company was used to detect inhibitory activities of the compounds on L1196M mutant ALK kinases.
? instrument ? Envision 2104 plate reader from PerKinElmer company.
? experiment material ? HTRF KinEASE™-TK Assay Kit (Cisbio company, catalog No. 62TK0PEC); L1196M mutant ALK kinase (produced by Sino-US Crown Bioscience, Inc., batch number ALKm_20110923); DTT (Gibco BRL company, catalog No. 15508-012); MgCl2 (Sigma Aldrich company, catalog No. M-2670); ATP (Sigma Aldrich company, catalog No. A-7699, batch number 051M7014V); DMSO (AMRESCO company, catalog No. 0231); EDTA (AMRESCO company, catalog No. 0105); 96 wells plates (for diluting compounds) (CITOTEST company, catalog No. Ref36020096D); OptiPlate™-384 (White), PerkinElmer company, catalog No. P12-004)
? experimental condition ? Compounds (the final concentration of DMSO was 1%), the reaction substrate (the final concentration was 1 μM), ATP (the final concentration was 5 μM), and L1196M mutant ALK kinases (the final concentration was 1 ng/μl) were mixed respectively in a final volume of 10 μl reaction system (containing 5 mM MgCl2, 1× Kinase buffer, and 1 mM DTT). The mixture was reacted at 30° C. for 35 minutes after shaking for 30 seconds. After completion of the reaction, each well was added with 5 μl Sa-XL665 and 5 μl TK Antibody-Eu(K), and placed in the dark for 60 minutes to end the reaction after uniform mixing. The data was read from PerkinElmer EnVision plate reader ([…]), the 665/615 ratio was calculated, and the data was analyzed.
? tested samples ? Compounds from the examples.
? data analysis ? Minimum 665/615 ratio (Rmin, 665/615 ratio under the condition that 10.4 μM positive control drug LDK-378 was added)
Maximum 665/615 ratio (Rmax, 665/615 ratio under the condition that no compound was added)
Tested 665/615 ratio (Rcompound, 665/615 ratio under the condition that a given concentration of compound was added) Inhibition rate (%)=[1−(Rcompound−Rmin)/(Rmax−Rmin)]×100
? data processing ? IC50 of compounds was calculated by using XLfit program in Excel.
In general terms: TR-FRET usually uses a lanthanide donor and a delayed reading to cut background.

The next assay has as its system NCI-H2228 cell line. The experiment in a line: CellTiter-Glo cell proliferation inhibition on NCI-H2228 cell line. It is filed as cell-based. The settings on record: Homo sapiens, NCI-H2228, 96 h, NCI-H2228 cells, 5000 cells/well, 4 days drug treatment. The essentials: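 NCI-H2228 cells, 5000/well in RPMI-1640 + 10% FBS, treated with compounds 2 h after seeding (0.5% DMSO final) for 4 days at 37° C. Viability by CellTiter-Glo luminescence; inhibition relative to DMSO control, IC50 from curve fit.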
Background: Cellular ATP, detected with luciferase, serves as a proxy for viable cell number.

T1 sequence (Q9UM73 19-1620 L1196M): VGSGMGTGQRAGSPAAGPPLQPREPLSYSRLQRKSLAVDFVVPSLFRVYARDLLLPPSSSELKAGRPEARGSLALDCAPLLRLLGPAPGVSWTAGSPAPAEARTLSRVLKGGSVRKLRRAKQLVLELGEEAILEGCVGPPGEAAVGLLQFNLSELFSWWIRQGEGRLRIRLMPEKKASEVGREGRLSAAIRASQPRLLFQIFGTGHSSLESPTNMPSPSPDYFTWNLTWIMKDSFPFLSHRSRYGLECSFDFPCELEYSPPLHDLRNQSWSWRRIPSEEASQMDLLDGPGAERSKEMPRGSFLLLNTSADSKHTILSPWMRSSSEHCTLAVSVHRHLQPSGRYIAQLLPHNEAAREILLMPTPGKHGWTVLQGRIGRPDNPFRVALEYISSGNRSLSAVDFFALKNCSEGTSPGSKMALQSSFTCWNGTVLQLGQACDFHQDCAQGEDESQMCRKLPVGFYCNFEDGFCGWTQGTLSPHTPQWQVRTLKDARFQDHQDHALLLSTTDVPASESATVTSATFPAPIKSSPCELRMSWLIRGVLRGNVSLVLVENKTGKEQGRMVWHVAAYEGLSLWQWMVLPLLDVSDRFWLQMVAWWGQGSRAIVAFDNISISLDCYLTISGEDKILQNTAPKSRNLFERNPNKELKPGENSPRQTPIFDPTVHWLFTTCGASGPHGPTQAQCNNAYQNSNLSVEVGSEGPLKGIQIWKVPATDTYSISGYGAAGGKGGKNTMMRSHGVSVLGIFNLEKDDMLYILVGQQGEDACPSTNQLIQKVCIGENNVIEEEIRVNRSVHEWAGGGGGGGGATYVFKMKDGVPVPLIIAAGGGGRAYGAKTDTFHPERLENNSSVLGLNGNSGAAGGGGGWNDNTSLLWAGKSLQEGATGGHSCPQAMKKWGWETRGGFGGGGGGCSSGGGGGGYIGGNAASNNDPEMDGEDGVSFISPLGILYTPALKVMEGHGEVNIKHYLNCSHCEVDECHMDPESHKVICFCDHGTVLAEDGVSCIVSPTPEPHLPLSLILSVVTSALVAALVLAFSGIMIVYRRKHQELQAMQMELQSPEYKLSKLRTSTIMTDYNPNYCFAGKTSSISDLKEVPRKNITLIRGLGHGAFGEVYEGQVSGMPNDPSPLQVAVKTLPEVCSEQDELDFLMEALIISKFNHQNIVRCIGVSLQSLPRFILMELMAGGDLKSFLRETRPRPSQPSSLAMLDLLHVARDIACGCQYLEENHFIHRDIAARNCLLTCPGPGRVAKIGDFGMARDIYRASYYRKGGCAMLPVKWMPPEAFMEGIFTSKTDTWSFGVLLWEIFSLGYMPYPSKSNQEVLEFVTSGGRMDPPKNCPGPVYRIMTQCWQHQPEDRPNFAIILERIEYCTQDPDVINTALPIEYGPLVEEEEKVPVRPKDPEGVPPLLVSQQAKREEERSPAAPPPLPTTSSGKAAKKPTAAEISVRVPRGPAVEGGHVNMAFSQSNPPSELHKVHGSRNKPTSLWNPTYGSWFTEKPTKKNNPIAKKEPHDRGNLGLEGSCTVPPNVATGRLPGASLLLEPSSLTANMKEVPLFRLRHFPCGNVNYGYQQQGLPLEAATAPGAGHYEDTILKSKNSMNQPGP

Turning to `Cc1cc(Nc2ncc(Cl)c(Nc3cn(C)nc3S(=O)(=O)C(C)C)n2)c(OC(C)C)cc1C1CNC1` [Final product 4], the pIC50 (as a rule, the negative decadic logarithm of the IC50, by convention in mol/L) on L1196M mutant ALK kinase was 7.89; with NCI-H2228 cell line, 6.54.

As for `Cc1cc(Nc2ncc(Cl)c(Nc3cn(C4CC4)nc3S(=O)(=O)C(C)C)n2)c(OC(C)C)cc1C1CCNCC1` [Final product 5], the pIC50 on L1196M mutant ALK kinase was 7.92; in the assay on NCI-H2228 cell line, 6.61.

In the case of `Cc1cc(Nc2ncc(Cl)c(Nc3cn(C)nc3S(=O)(=O)CC(C)C)n2)c(OC(C)C)cc1C1CCNCC1` [Final product 6], the pIC50 is 8.15 on L1196M mutant ALK kinase and 6.71 in the assay on NCI-H2228 cell line.

`CCC(C)S(=O)(=O)c1nn(C)cc1Nc1nc(Nc2cc(C)c(C3CCNCC3)cc2OC(C)C)ncc1Cl` (stereo not drawn) [Final product 7]: the values for the pIC50 on L1196M mutant ALK kinase and in the assay on NCI-H2228 cell line were 7.92 and 6.65, respectively.

With `Cc1cc(Nc2ncc(Cl)c(Nc3cn(C)nc3S(=O)(=O)C(C)C)n2)c(OC(CF)CF)cc1C1CCNCC1` [Final product 8], the pIC50 was 8.00 at L1196M mutant ALK kinase and 6.25 in the assay with NCI-H2228 cell line.

In the case of `CC(C)S(=O)(=O)c1nn(C)cc1Nc1nc(Nc2ccc(C3CCNCC3)cc2OC(F)(F)F)ncc1Cl` [Final product 9], the negative logarithm of the IC50 (pIC50) at L1196M mutant ALK kinase is 7.46; in the assay on NCI-H2228 cell line, 6.19.

On to `Cc1cc(Nc2ncc(Cl)c(Nc3cn(C)nc3S(=O)(=O)C(C)C)n2)c(OC(F)(F)F)cc1C1CCNCC1` [Final product 10], for which the figures for the pIC50 on L1196M mutant ALK kinase and with NCI-H2228 cell line were 7.89 and 6.73, respectively.

Consider `Cc1cc(Nc2ncc(Cl)c(Nc3cn(C)nc3S(=O)(=O)C(C)C)n2)c(C(F)(F)F)cc1C1CCNCC1` [Final product 11], for which the pIC50 was 7.41 at L1196M mutant ALK kinase and 6.19 with NCI-H2228 cell line.

For the compound `Cc1cc(Nc2ncc(Cl)c(Nc3cn(C)nc3S(=O)(=O)C(C)C)n2)c(OCC2CC2)cc1C1CCNCC1` [Final product 12], the negative logarithm of the IC50 (pIC50) at L1196M mutant ALK kinase was 7.77; in the assay on NCI-H2228 cell line, 6.58.

For `CC(C)S(=O)(=O)c1nn(C)cc1Nc1nc(Nc2ccc(C3CCNCC3)cc2OC2CC2)ncc1Cl` [Final product 13], the pIC50 is 8.15 at L1196M mutant ALK kinase and 7.24 in the assay with NCI-H2228 cell line.

For the compound `CC(C)S(=O)(=O)c1nn(C)cc1Nc1nc(Nc2ccc(C3=CCNCC3)cc2OC2CC2)ncc1Cl` [Final product 14], the pIC50 on L1196M mutant ALK kinase is 8.22; in the assay with NCI-H2228 cell line, 6.77.

`CC(C)S(=O)(=O)c1nn(C)cc1Nc1nc(Nc2ccc(C3CCNC3)cc2OC2CC2)ncc1Cl` (stereo not drawn) [Final product 15]: the negative logarithm of the IC50 (pIC50) at L1196M mutant ALK kinase is 8.30; in the assay with NCI-H2228 cell line it was 7.32.

Regarding `CC(C)S(=O)(=O)c1nn(C2CC2)cc1Nc1nc(Nc2ccc(C3CCNCC3)cc2OC2CC2)ncc1Cl` [Final product 16], the pIC50 on L1196M mutant ALK kinase was 8.15; in the assay with NCI-H2228 cell line it was 7.41.

With `CC(C)CS(=O)(=O)c1nn(C)cc1Nc1nc(Nc2ccc(C3CCNCC3)cc2OC2CC2)ncc1Cl` [Final product 17], the pIC50 on L1196M mutant ALK kinase was 7.89; in the assay with NCI-H2228 cell line, 6.56.

For `CC(C)CS(=O)(=O)c1nn(C)cc1Nc1nc(Nc2ccc(C3CCNC3)cc2OC2CC2)ncc1Cl` (stereo not drawn) [Final product 18], the pIC50 on L1196M mutant ALK kinase was 8.40; in the assay with NCI-H2228 cell line it was 6.80.

`CC(C)S(=O)(=O)c1nn(C)cc1Nc1nc(Nc2cc(F)c(C3CCNC3)cc2OC2CC2)ncc1Cl` (stereo not drawn) [Final product 20]: the values for the negative-log IC50 (pIC50) on L1196M mutant ALK kinase and in the assay on NCI-H2228 cell line were 7.47 and 6.42, respectively.

As to `CC(C)S(=O)(=O)c1nn(C2CC2)cc1Nc1nc(Nc2cc(F)c(C3CCNCC3)cc2OC2CC2)ncc1Cl` [Final product 21], the pIC50 at L1196M mutant ALK kinase was 8.70; in the assay on NCI-H2228 cell line it was 7.21.

Turning to `CC(C)S(=O)(=O)c1nn(C)cc1Nc1nc(Nc2cc(Cl)c(C3CCNCC3)cc2OC2CC2)ncc1Cl` [Final product 22], the pIC50 on L1196M mutant ALK kinase is 7.92; in the assay with NCI-H2228 cell line, 6.94.

Take `CC(C)S(=O)(=O)c1nn(C2CC2)cc1Nc1nc(Nc2cc(Cl)c(C3CCNCC3)cc2OC2CC2)ncc1Cl` [Final product 23]: the figures for the pIC50 at L1196M mutant ALK kinase and in the assay with NCI-H2228 cell line were 8.10 and 6.97, respectively.

As to `Cc1cc(Nc2ncc(Cl)c(Nc3cn(C)nc3S(=O)(=O)C(C)C)n2)c(OC2CC2)cc1C1CCNCC1` [Final product 24], the values for the pIC50 at L1196M mutant ALK kinase and in the assay on NCI-H2228 cell line were 8.40 and 6.91, respectively.

Take `Cc1cc(Nc2ncc(Cl)c(Nc3cn(C)nc3S(=O)(=O)C(C)C)n2)c(OC2CC2)cc1C1=CCNCC1` [Final product 25]: the values for the pIC50 at L1196M mutant ALK kinase and in the assay on NCI-H2228 cell line were 8.30 and 6.72, respectively.

On to `Cc1cc(Nc2ncc(Cl)c(Nc3cn(C)nc3S(=O)(=O)C(C)C)n2)c(OC2CC2)cc1C1CCNC1` (stereo not drawn) [Final product 26], for which the pIC50 is 8.22 at L1196M mutant ALK kinase and 6.66 in the assay with NCI-H2228 cell line.

For the compound `Cc1cc(Nc2ncc(Cl)c(Nc3cn(C4CC4)nc3S(=O)(=O)C(C)C)n2)c(OC2CC2)cc1C1CCNCC1` [Final product 27], the figures for the negative-log IC50 (pIC50) at L1196M mutant ALK kinase and in the assay with NCI-H2228 cell line were 8.22 and 6.77, respectively.

`Cc1cc(Nc2ncc(Cl)c(Nc3cn(C)nc3S(=O)(=O)CC(C)C)n2)c(OC2CC2)cc1C1CCNCC1` [Final product 28]: the pIC50 at L1196M mutant ALK kinase is 7.82; in the assay with NCI-H2228 cell line, 6.87.

In the case of `CC(C)S(=O)(=O)c1nn(C)cc1Nc1nc(Nc2cc(C#N)c(C3CCNCC3)cc2OC2CC2)ncc1Cl` [Final product 29], the pIC50 at L1196M mutant ALK kinase was 8.15; in the assay on NCI-H2228 cell line, 6.80.

As for `CC(C)S(=O)(=O)c1nn(C)cc1Nc1nc(Nc2ccc(C3CCN(C)CC3)cc2OC(F)(F)F)ncc1Cl` [Final product 30], the pIC50 on L1196M mutant ALK kinase was 7.74; in the assay with NCI-H2228 cell line it was 7.03.

With `Cc1cc(Nc2ncc(Cl)c(Nc3cn(C)nc3S(=O)(=O)C(C)C)n2)c(OC(F)(F)F)cc1C1CCN(C)CC1` [Final product 31], the pIC50 on L1196M mutant ALK kinase was 8.00; in the assay on NCI-H2228 cell line, 6.43.

Regarding `Cc1cc(Nc2ncc(Cl)c(Nc3cn(C)nc3S(=O)(=O)C(C)C)n2)c(C(F)(F)F)cc1C1CCN(C)CC1` [Final product 32], the results for the pIC50 on L1196M mutant ALK kinase and in the assay on NCI-H2228 cell line were 7.31 and 5.97, respectively.

On to `Cc1cc(Nc2ncc(Cl)c(Nc3cn(C)nc3S(=O)(=O)C(C)C)n2)c(OC(CF)CF)cc1C1CCN(C)CC1` [Final product 34], for which the pIC50 on L1196M mutant ALK kinase is 7.64; in the assay with NCI-H2228 cell line it was 6.39.

As for `Cc1cc(Nc2ncc(Cl)c(Nc3cn(C)nc3S(=O)(=O)CC(C)C)n2)c(OC(C)C)cc1C1CN(C)C1` [Final product 36], the pIC50 at L1196M mutant ALK kinase is 7.82; in the assay with NCI-H2228 cell line it was 6.49.

In the case of `Cc1cc(Nc2ncc(Cl)c(Nc3cn(C)nc3S(=O)(=O)C(C)C)n2)c(OC(C)C)cc1C1CCN(C)C1` (stereo not drawn) [Final product 37], the pIC50 is 8.40 at L1196M mutant ALK kinase and 6.88 in the assay on NCI-H2228 cell line.

As to `CC(C)S(=O)(=O)c1nn(C2CC2)cc1Nc1nc(Nc2ccc(C3CCN(C)CC3)cc2OC(F)(F)F)ncc1Cl` [Final product 38], the pIC50 at L1196M mutant ALK kinase is 7.74; in the assay with NCI-H2228 cell line it was 6.84.

With `Cc1cc(Nc2ncc(Cl)c(Nc3cn(C)nc3S(=O)(=O)C(C)C)n2)c(OCC2CC2)cc1C1CCN(C)CC1` [Final product 39], the values for the pIC50 at L1196M mutant ALK kinase and with NCI-H2228 cell line were 7.32 and 6.65, respectively.

Take `CC(C)S(=O)(=O)c1nn(C)cc1Nc1nc(Nc2ccc(C3CCN(C)C3)cc2OC2CC2)ncc1Cl` (stereo not drawn) [Final product 41]: the values for the pIC50 on L1196M mutant ALK kinase and with NCI-H2228 cell line were 8.52 and 7.48, respectively.

Turning to `CC(C)S(=O)(=O)c1nn(C2CC2)cc1Nc1nc(Nc2ccc(C3CCN(C)CC3)cc2OC2CC2)ncc1Cl` [Final product 42], the pIC50 on L1196M mutant ALK kinase was 8.52; in the assay with NCI-H2228 cell line, 7.54.

In the case of `CC(C)S(=O)(=O)c1nn(C)cc1Nc1nc(Nc2cc(F)c(C3CCN(C)C3)cc2OC2CC2)ncc1Cl` (stereo not drawn) [Final product 45], the pIC50 on L1196M mutant ALK kinase is 8.00; in the assay on NCI-H2228 cell line, 6.87.
